Measurements taken from patent US11685734B2, “ATM kinase inhibitors and compositions and methods of use thereof” (CHDI Foundation, Inc., priority 2019, dated 2023).

What was measured:
cellular ATM activity = cellular ATM activity (Homo sapiens (Human), UniProt Q13315); experiment: Inhibition of cellular ATM activity: etoposide-stimulated KAP1 phosphorylation in U20S cells; assay type: cell-based; conditions: 100 μM etoposide, 60 min, read-out: ATM CELL IC50
Method: Inhibition of cellular ATM activity was determined by changes in etoposide-stimulated KAP1 phosphorylation, based on the work of Guo et al. 2014.
Cryopreserved U20S cells were plated overnight at 6 k cells/well in black walled, clear bottomed 384 well plates (Greiner Bio One 781090). After overnight incubation (37 C, 5% CO2), cells were incubated with titrations of test compounds (0.3% DMSO final) in the presence of 100 μM etoposide (Sigma E1383) to stimulate ATM via induction of double stranded DNA breaks. After 60 min, cells were fixed using 100% cold methanol and incubated at −20° C. for 10 min. Fixed cells were washed with PBS containing 0.05% (v/v) Tween 20 (PBS-T) prior to a 60 minute blocking step in Odyssey blocking buffer (LI-COR Biosciences 92740000). Primary antibodies (1:1000 phosphorylated KAP1: Cell Signalling Technology 4127, 1:5000 total KAP1: Cell Signaling Technology 5868) were diluted in Odyssey blocking buffer and incubated overnight at 4° C., before addition of IRDye(R) conjugated secondary antibodies (LI-COR Biociences 926-32211, LI-COR Biosciences 926-68070) diluted 1:2000 in Odyssey blocking buffer for 60 min at room temperature and detection by LI-COR Odyssey (ImageStudio version 2.1.10, focus offset 4 mm, resolution 169 μm, lowest quality, intensities of 1 and 3 for 700 and 800 channels respectively). Immunoreactivity was quantified and the ratio of phosphorylated KAP1 calculated by dividing by the total KAP1 immunoreactivity. The percentage of inhibition was calculated for each concentration of compound using 100% (100 μM etoposide+30 μM KU-60019) and 0% effect controls (100 μM etoposide+DMSO). IC50 values represent the mean from at least two independent experiments.

[1] = target: Recombinant, full length human FLAG-tagged ATM (Homo sapiens (Human), UniProt Q13315); experiment: ATM ELISA for p53 S15 phosphorylation; assay type: biochemical; conditions: 0.75 nM ATM, 25 nM p53, 10 μM ATP, 30 min at 20° C.; read-out: ATM BIO IC50
Sequence of Recombinant, full length human FLAG-tagged ATM (Q13315 whole entry): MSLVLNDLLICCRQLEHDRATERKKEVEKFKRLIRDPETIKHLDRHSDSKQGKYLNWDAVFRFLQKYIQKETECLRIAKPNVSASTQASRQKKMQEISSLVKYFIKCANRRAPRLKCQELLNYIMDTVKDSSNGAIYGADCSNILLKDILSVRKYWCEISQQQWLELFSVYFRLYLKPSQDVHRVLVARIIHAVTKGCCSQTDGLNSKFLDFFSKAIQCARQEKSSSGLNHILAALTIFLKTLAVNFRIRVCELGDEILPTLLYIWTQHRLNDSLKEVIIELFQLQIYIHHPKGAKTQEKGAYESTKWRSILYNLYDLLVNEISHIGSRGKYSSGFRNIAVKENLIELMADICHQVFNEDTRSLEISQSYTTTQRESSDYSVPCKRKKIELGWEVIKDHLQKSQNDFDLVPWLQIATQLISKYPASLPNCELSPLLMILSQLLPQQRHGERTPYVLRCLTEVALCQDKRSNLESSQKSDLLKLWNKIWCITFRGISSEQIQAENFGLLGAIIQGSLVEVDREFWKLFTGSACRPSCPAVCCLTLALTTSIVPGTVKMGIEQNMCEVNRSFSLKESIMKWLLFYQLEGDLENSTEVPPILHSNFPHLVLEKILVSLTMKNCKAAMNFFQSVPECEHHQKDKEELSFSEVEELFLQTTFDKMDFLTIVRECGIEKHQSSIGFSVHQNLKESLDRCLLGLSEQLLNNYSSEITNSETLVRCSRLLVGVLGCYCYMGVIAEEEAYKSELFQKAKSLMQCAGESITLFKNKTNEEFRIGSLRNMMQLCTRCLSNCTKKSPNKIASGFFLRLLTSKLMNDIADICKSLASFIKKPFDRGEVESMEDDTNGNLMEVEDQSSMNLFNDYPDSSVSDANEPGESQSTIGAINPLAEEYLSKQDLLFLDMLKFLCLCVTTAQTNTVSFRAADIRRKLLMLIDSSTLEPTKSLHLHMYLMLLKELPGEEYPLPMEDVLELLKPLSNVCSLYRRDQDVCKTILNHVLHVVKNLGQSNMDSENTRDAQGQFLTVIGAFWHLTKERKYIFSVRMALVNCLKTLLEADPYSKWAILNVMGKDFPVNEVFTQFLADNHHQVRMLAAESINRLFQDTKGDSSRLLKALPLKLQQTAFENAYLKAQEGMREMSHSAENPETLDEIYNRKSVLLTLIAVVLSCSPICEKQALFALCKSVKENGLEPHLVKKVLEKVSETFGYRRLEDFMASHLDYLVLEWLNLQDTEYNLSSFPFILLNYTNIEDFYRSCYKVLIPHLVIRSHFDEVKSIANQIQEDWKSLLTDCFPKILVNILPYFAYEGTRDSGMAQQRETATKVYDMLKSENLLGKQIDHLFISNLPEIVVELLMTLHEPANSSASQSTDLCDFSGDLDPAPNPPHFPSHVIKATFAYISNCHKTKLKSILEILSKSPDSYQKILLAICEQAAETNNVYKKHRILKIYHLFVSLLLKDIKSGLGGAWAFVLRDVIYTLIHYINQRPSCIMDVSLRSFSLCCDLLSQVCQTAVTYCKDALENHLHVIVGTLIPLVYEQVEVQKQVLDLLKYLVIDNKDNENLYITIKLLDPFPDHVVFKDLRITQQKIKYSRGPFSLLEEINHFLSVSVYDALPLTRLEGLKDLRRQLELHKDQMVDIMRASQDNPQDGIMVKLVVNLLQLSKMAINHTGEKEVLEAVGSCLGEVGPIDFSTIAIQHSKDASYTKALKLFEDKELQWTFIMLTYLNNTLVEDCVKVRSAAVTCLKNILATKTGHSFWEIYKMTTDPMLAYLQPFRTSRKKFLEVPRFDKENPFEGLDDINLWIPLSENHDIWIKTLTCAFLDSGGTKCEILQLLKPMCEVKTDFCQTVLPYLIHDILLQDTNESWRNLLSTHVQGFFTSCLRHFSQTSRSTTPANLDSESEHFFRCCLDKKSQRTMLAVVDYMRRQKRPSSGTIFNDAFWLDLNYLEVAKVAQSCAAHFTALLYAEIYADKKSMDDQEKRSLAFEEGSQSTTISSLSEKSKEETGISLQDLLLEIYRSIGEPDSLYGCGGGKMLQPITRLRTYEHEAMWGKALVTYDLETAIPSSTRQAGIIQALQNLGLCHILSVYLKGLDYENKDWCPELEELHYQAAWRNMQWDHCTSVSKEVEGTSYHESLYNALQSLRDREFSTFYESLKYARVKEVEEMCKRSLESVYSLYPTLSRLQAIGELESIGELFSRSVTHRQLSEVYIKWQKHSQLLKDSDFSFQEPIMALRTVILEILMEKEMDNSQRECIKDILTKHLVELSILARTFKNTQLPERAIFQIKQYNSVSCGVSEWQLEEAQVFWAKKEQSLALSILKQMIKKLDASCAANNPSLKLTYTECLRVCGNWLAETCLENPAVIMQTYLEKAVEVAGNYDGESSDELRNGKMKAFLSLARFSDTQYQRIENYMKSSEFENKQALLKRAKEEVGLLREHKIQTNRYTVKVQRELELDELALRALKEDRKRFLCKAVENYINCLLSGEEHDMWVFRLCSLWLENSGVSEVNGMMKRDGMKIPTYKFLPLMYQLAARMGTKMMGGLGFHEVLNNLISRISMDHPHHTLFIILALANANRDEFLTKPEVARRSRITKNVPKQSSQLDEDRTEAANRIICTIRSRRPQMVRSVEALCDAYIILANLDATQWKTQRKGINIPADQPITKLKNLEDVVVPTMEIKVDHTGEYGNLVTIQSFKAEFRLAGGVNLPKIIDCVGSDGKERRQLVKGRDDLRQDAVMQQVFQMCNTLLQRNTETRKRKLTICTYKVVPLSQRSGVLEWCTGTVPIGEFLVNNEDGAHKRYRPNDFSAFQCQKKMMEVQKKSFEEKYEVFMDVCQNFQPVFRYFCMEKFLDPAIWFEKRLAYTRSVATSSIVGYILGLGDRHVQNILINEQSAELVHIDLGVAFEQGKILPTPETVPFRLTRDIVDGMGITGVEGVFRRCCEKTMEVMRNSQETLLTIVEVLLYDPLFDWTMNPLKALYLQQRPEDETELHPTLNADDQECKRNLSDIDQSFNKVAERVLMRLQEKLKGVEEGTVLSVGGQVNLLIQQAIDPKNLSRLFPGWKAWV
Method: ATM: Recombinant, full length human FLAG-tagged ATM activity (Eurofins 14-933) was measured in an ELISA for p53 S15 phosphorylation, in a 384 well V-bottom polypropylene plate (Greiner Bio One 781280). Reactions contained 0.75 nM ATM, 25 nM full length myc tagged p53 (Eurofins 23-034), 10 μM UltraPure ATP (Promega V915B) and serial dilutions of inhibitors (0.1% DMSO final) in 25 mM HEPES, pH 7.5. 5 mM MgCl2, 2.5 mM MnCl2, 0.006% Brij-35, 0.5% glycerol, 0.1 mg/ml BSA, 0.5 mM DTT and were allowed to proceed for 30 min at 20° C. 70 mM EDTA final terminated the kinase reactions. An aliquot of the terminated reaction (25 μl) was transferred to a 384-well, high binding microplate (Greiner Bio One 781061), precoated with anti-myc capture antibody overnight (Millipore 05-724) diluted in 1:1000 in PBS, then blocked with Odyssey blocking buffer (LI-COR Biosciences 92740000) for 60 min at 20° C. The terminated reaction was allowed to capture for 2 h at 20° C. Phosphorylation was measured using an antibody specific to p53 S15 phosphorylation (1:5000 Abcam ab38497), anti-rabbit HRP (1:1000 Cell Signalling Technology, 7074) and TMB (ab171522). Antibodies were diluted in Odyssey blocking buffer and incubated for 60 min at 20° C. Three washes with PBS containing 0.05% (v/v) Tween 20 (PBS-T) were performed between each incubation. The TMB reaction was stopped with an equal volume of 0.2 M sulfuric acid and absorbance read at 450 nm on the Perkin Elmer Envision within 30 min of terminating the reaction. […] IC50 values represent the mean from at least two independent experiments.

Sequence of cellular ATM activity (Q13315 whole entry): as above

IC50 (cellular ATM activity)	IC50 [1]	SMILES
2030 nM	65.6 nM	COC[C@@H](C)Oc1ccc(C[C@H]2CCCN2c2cc(N3CCOCC3)cc(=O)[nH]2)cc1 [Example 145, 6-((R)-2-(4-(((R)-1-methoxypropan-2-yl)oxy)benzyl)pyrrolidin-1-yl)-4-morpholinopyridin-2(1H)-one]
1860 nM	74.2 nM	O=c1cc(N2CCOCC2)cc(N2CCC[C@@H]2Cc2cccc(OC3CCOCC3)c2)[nH]1 [Example 146, (R)-4-morpholino-6-(2-(3-((tetrahydro-2H-pyran-4-yl)oxy)benzyl)pyrrolidin-1-yl)pyridin-2(1H)-one]
1170 nM	41.8 nM	COC[C@@H](C)Oc1cccc(C[C@H]2CCCN2c2cc(N3CCOCC3)cc(=O)[nH]2)c1 [Example 148, 6-((R)-2-(3-(((R)-1-methoxypropan-2-yl)oxy)benzyl)pyrrolidin-1-yl)-4-morpholinopyridin-2(1H)-one]
1020 nM	20.9 nM	COC[C@@H](C)Oc1ccc(C[C@H]2CCCCCN2c2cc(N3CCOCC3)cc(=O)[nH]2)cc1 [Example 151, 6-((R)-2-(4-(((R)-1-methoxypropan-2-yl)oxy)benzyl)azepan-1-yl)-4-morpholinopyridin-2(1H)-one]
1540 nM	38.7 nM	O=c1cc(C2=CCOCC2)cc(N2CCCCC[C@@H]2Cc2ccccc2)[nH]1 [Example 167, (R)-6-(2-benzylazepan-1-yl)-4-(3,6-dihydro-2H-pyran-4-yl)pyridin-2(1H)-one]
1900 nM	37.8 nM	Cn1c(N2CCC[C@@H]2Cc2ccccc2)cc(N2CCOCC2)cc1=O [Example 173, (R)-6-(2-benzylpyrrolidin-1-yl)-1-methyl-4-morpholinopyridin-2(1H)-one]
462 nM	5.1 nM	Cn1c(N2CCC[C@@H]2Cc2ccccc2)nc(N2CCOCC2)cc1=O [Example 176, (R)-2-(2-benzylpyrrolidin-1-yl)-3-methyl-6-morpholinopyrimidin-4(3H)-one]
451 nM	8 nM	O=c1cc(N2CCOCC2)nc(N2CCC[C@@H]2Cc2ccccc2)[nH]1 [Example 178, (R)-2-(2-benzylpyrrolidin-1-yl)-6-morpholinopyrimidin-4-ol]
548 nM	1.2 nM	Cc1ccccc1C[C@H]1CCCCCN1c1nc(N2CCOCC2)cc(=O)[nH]1 [Example 181, (R)-2-(2-(2-methylbenzyl)azepan-1-yl)-6-morpholinopyrimidin-4(3H)-one]
852 nM	14.4 nM	Cc1ccc(C[C@H]2CCCN2c2nc(N3CCOCC3)cc(=O)[nH]2)cc1 [Example 186]
1060 nM	28.7 nM	Cc1cc(C[C@H]2CCCN2c2nc(N3CCOCC3)cc(=O)[nH]2)cc(C)n1 [Example 188]
939 nM	4.2 nM	O=c1cc(N2CCOCC2)nc(N2CCC[C@@H]2Cc2ccc(Cl)c(Cl)c2)[nH]1 [Example 190]
1340 nM	30 nM	O=c1cc(N2CCOCC2)nc(N2CCCC2Cn2cnc3ccccc32)[nH]1 (stereo not shown) [Example 192]
598 nM	9.7 nM	O=c1cc(N2CCOCC2)nc(N2CCC[C@@H]2Cc2ccc(F)cc2)[nH]1 [Example 193]
975 nM	46.9 nM	CC(C)(c1ccccc1)[C@H]1CCCN1c1nc(N2CCOCC2)cc(=O)[nH]1 [Example 196]
711 nM	14.9 nM	COc1ccccc1C[C@H]1CCCCN1c1nc(N2CCOCC2)cc(=O)[nH]1 [Example 197]
125 nM	2.8 nM	O=c1cc(N2CCOCC2)nc(N2CCCC[C@@H]2Cc2ccccc2)[nH]1 [Example 199]
693 nM	14.1 nM	COc1ccccc1C[C@H]1CCCCCN1c1nc(N2CCOCC2)cc(=O)[nH]1 [Example 201]
427 nM	1.9 nM	COc1cccc(C[C@H]2CCCCCN2c2nc(N3CCOCC3)cc(=O)[nH]2)c1 [Example 203]
797 nM	39.6 nM	O=c1cc(N2CCOCC2)nc(N2CCCCC[C@@H]2Cc2ccccc2Cl)[nH]1 [Example 205]
207 nM	4.4 nM	O=c1cc(N2CCOCC2)nc(N2C[C@@H]3C[C@@H]3[C@@H]2Cc2ccc(F)cc2)[nH]1 [Example 207]

IC50 (cellular ATM activity)	IC50 [1]	SMILES
377 nM	8.9 nM	O=c1cc(N2CCOCC2)nc(N2C[C@H]3C[C@H]3[C@@H]2Cc2ccc(F)cc2)[nH]1 [Example 209]
446 nM	3.7 nM	O=c1cc(N2CCOCC2)nc(N2C[C@@H]3C[C@@H]3[C@@H]2Cc2ccccc2)[nH]1 [Example 211]
134 nM	1.1 nM	O=c1cc(N2CCOCC2)nc(N2C[C@H]3C[C@H]3[C@@H]2Cc2ccccc2)[nH]1 [Example 213]
74 nM	1 nM	C[C@@H]1CCN(c2nc(N3CCOCC3)cc(=O)[nH]2)[C@H]1Cc1ccccc1 [Example 215]
499 nM	7.1 nM	COc1ccccc1C[C@H]1[C@H](C)CCN1c1nc(N2CCOCC2)cc(=O)[nH]1 [Example 217]
163 nM	5.7 nM	O=c1cc(N2CCOCC2)nc(N2CCCCC[C@@H]2Cc2ccc(F)cc2)[nH]1 [Example 222]
512 nM	26.3 nM	O=c1cc(N2CCOCC2)nc(N2CCCCC[C@@H]2Cc2cccc(F)c2F)[nH]1 [Example 223]
260 nM	3.9 nM	O=c1cc(N2CCOCC2)nc(N2CCCCC[C@@H]2Cc2cccc3c2OCC3)[nH]1 [Example 225]
756 nM	69.5 nM	COc1cc(F)ccc1C[C@H]1CCCCCN1c1nc(N2CCOCC2)cc(=O)[nH]1 [Example 228]
881 nM	71.2 nM	COc1cccc(C[C@H]2CCCCCN2c2nc(N3CCOCC3)cc(=O)[nH]2)c1OC [Example 230]
1090 nM	84 nM	COc1c(F)cccc1C[C@H]1CCCCCN1c1nc(N2CCOCC2)cc(=O)[nH]1 [Example 231]
327 nM	1.2 nM	C[C@H]1CCCN(c2nc(N3CCOCC3)cc(=O)[nH]2)[C@@H](Cc2ccccc2)C1 [Example 233]
436 nM	5.3 nM	C[C@H]1CCCN(c2nc(N3CCOCC3)cc(=O)[nH]2)[C@@H](Cc2ccc(F)cc2)C1 [Example 235]
592 nM	35.6 nM	COc1ccccc1C[C@H]1C[C@@H](C)CCCN1c1nc(N2CCOCC2)cc(=O)[nH]1 [Example 237]
2020 nM	36.5 nM	COc1ccccc1CC1CC(F)(F)CCCN1c1nc(N2CCOCC2)cc(=O)[nH]1 (stereo not shown) [Example 239]
9760 nM	84.5 nM	CC1(C)CCCN(c2nc(N3CCOCC3)cc(=O)[nH]2)[C@@H](Cc2ccccc2)C1 [Example 242]
273 nM	10.2 nM	O=c1cc(N2CCOCC2)nc(N2CCCC(F)(F)C[C@@H]2Cc2ccccc2)[nH]1 [Example 244]
1240 nM	17.3 nM	CC1(C)CCC[C@H](Cc2ccccc2)N(c2nc(N3CCOCC3)cc(=O)[nH]2)C1 [Example 245]
421 nM	3.9 nM	O=c1cc(N2CCOCC2)nc(N2CCCCC[C@@H]2Cc2ccsc2)[nH]1 [Example 248]
153 nM	5 nM	C[C@@H](c1ccccc1)[C@@H]1CCCN1c1nc(N2CCOCC2)cc(=O)[nH]1 [Example 250, 6-morpholino-2-((S)-2-((S)-1-phenylethyl)pyrrolidin-1-yl)pyrimidin-4(3H)-one]
